Test results published in patent publication US9676715B2, “Bis-indolic derivatives, a process for preparing the same and their uses as a drug” (UNIVERSITE JOSEPH FOURIER, priority 2011, dated 2017).
Converted amounts (≈) assume the structure as drawn.

Tests used:
[1] = tested on: S. epidermidis ATCC 12228; test: MIC, microdilution method (9.1); format: cell-based, Staphylococcus epidermidis; settings: Staphylococcus epidermidis, ATCC12228, read after 18 h, read-out: MIC
In short: (§1)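 Using CLSI M07-A8 broth microdilution, MH broth, 37° C. in air; inoculum 5×10^5 CFU/ml; drug range 0.50-128 mg/L final.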

[2] = tested on: S. epidermidis CIP 103627; test: MIC, microdilution method (9.1); format: cell-based, Staphylococcus epidermidis; settings: Staphylococcus epidermidis, CIP103627, read after 18 h, read-out: MIC
In short: as §1

[3] = tested on: S. epidermidis CIP 81.55; test: MIC, microdilution method (9.1); format: cell-based, Staphylococcus epidermidis; settings: Staphylococcus epidermidis, CIP81, read after 18 h, read-out: MIC
In short: as §1

[4] = tested on: S. mitis CIP 103335; test: MIC, microdilution method (9.1); format: cell-based, Streptococcus mitis; settings: Streptococcus mitis, CIP103335, 18 h, read-out: MIC
In short: as §1

[5] = tested on: Staphylococcus aureus MRSA 252; test: MIC, Staphylococcus panel (9.2); format: cell-based; settings: 18 h
Method: (§2) The microdilution method recommended by the Clinical and Laboratory Standard Institute [M07-A9, Vol. 32, N° 2] was used. The activity of bis-indolic compounds 3f and 4 was tested against 35 Staphylococcus bacterial strains corresponding to 12 different species,
(§3) Bacterial inocula were prepared in Mueller Hinton broth (MH2, BioMérieux, Marcy L'Etoile, France). They were dispensed in 96 well microtiter plates (5×10^5 CFU/ml of final inoculum, 192 μL per well). Indolic compounds diluted in pure DMSO (8 μL per well, concentrated 25 times) were added to the wells as to obtain two-fold serial concentrations (0.5-32 mg/L of final concentrations). The final concentration of DMSO was 4% in each well.
(§4) To avoid cross-contaminations in microtiter plates, one row was left blank between each strain tested. Microplates were incubated for 18 h at 37° C. in ambient air. Then MICs were read visually and, in case of visual reading difficulties, confirmed using a spectrophotometer at a wavelength of 630 nm (BioTek® EL808 Absorbance Microplate Reader). MICs corresponded to the minimum bis-indolic compound concentration that allowed complete visual growth inhibition of bacteria. Drug-free cultures served as growth controls.
(§5) Four Staphylococcus aureus strains were used. Two reference strains were provided by the French reference center for Staphylococcus spp. (Lyon, France), including one methicillin-susceptible (MSSA 476) and one methicillin-resistant (MRSA 252) S. aureus strains. The two remaining S. aureus strains were purchased from the CRBIP (Centre de Ressources Biologiques de l'Institut Pasteur): a vancomycin-intermediate strain (ATCC 106414) and a S. aureus strain (SA-1199B) resistant to fluoroquinolones due to overexpression of the NorA multidrug efflux pump.

[6] = tested on: Staphylococcus aureus MSSA 476; test: MIC, Staphylococcus panel (9.2); format: cell-based; settings: S. aureus MSSA 476, 4% DMSO, 18 h
Method: as §2, §3, §4, §5

[7] = tested on: KB (human mouth carcinoma); test: In vitro cytotoxicity; format: cell-based; settings: read-out: % of cellular growth inhibition; for inhibition at 10 µM: 10^−5 M; for inhibition at 1 µM: 10^−6 M
Method: (§6) In vitro cytotoxicity was assayed on three cell lines—KB (human mouth carcinoma), MCR5 (human lung fibroblast) and HCT116 (human colon tumor). Results are presented in table IV as % of cellular growth inhibition in presence of 10^−5 M and 10^−6 M of the tested bis-indolic derivatives.

[8] = tested on: MRC5 (human lung fibroblast); test: In vitro cytotoxicity; format: cell-based; settings: read-out: % of cellular growth inhibition; for inhibition at 10 µM: 10^−5 M; for inhibition at 1 µM: 10^−6 M
Method: as §6

[9] = tested on: S. aureus ATCC 25923; test: Mutation frequency; format: cell-based, Staphylococcus aureus
Method: The mutation frequency is the number of individuals in a population with a particular mutation. In the present case, the mutation frequency was determined for a specific bacterial species and a specific indolic compound. Mueller Hinton agar plates containing various indolic compound concentrations, i.e., MIC×2, MIC×4, MIC×8, and MIC×16 were prepared. These plates were inoculated with various bacterial suspensions: 10^7, 10^8 or 10^9 UFC/mL. After 24 hours incubation of media at 37° C., CFU were numerated. The mutation frequency corresponded to the ratio of resistant mutants counted on a specific plate to the CFU count of the primary inoculum, expressed as a percentage.

[10] = tested on: Staphylococcus aureus 1199B (overexpression of the NorA efflux pump); test: Efflux pump inhibition assay with sub-inhibitory ciprofloxacin; format: cell-based; settings: S. aureus 1199B
Method: The efflux pump inhibition potential of the bis-indolic derivatives was tested using two steps.
The following experimental protocol was used: indolic derivatives (initially solubilised in DMSO at 10 mg/mL) were dispensed in a 96-wells microplate by two fold serial dilutions in Muller-Hinton medium (MH, Bio Rad) using a Biomek 2000 (Beckman) handling robot. 100 μL of the bacterial inoculum (an overnight culture at 37° C. in 5 mL MH diluted 100-fold) was then added in each well. The total volume was 200 μL in each well and the final bacteria concentration 10^6 CFU/mL (CFU: colony forming unit). The highest final indolic derivative concentration was 128 mg/L. Growth was assayed with a microplate reader by monitoring absorption at 620 nm after 1, 2, 5, 7 and 24 h incubation at 37° C. In addition, the plates were read visually after 24 hours incubation. Cultures containing 5 μL DMSO were used as growth controls. In addition, two controls containing a sub-inhibitory or a inhibitory antibiotic concentration for the tested strain were performed. The antibiotics used were ampicillin (0.5 and 32 μg/mL) for E. coli, kanamycin (0.5 and 16 μg/mL) for S. aureus ATCC 25923, ciprofloxacin (4 and 64 mg/L) for S. aureus 1199B, ciprofloxacin (0.5 and 2 mg/L) for S. aureus K2378. All experiments were performed in duplicate.
Efflux pump inhibition assays were then performed against resistant Staphylococcus aureus strains SA 1199B and SA K2378 for bis-indolic derivatives. […] The minimal inhibitory concentration (MIC) of the bis-indolic compound allowing a complete inhibition of the bacterial growth in the presence of ciprofloxacin was determined.

[11] = in the presence of ciprofloxacin 4 mg/L

| SMILES | MIC [1] | MIC [2] | MIC [3] | MIC [4] | MIC [5] | MIC [6] | inhibition at 10 µM [7] | inhibition at 1 µM [7] | inhibition at 10 µM [8] | inhibition at 1 µM [8] | mutation frequency [9] | MIC, mg/L (Ciprofloxacin concentration, mg/L) ([10]; in the presence of ciprofloxacin 1 mg/L) | MIC, mg/L (Ciprofloxacin concentration, mg/L) ([10]; in the presence of ciprofloxacin 2 mg/L) | MIC, mg/L (Ciprofloxacin concentration, mg/L) [10, 11] |
| --- | --- | --- | --- | --- | --- | --- | --- | --- | --- | --- | --- | --- | --- | --- |
| CC(C)(C)OC(=O)NCC(NC(=O)c1c[nH]c2ccc(Br)cc12)c1c[nH]c2ccc(Br)cc12 (stereo not shown) [Compound 3f, tert-Butyl(2-(5-bromo-1H-indol-3-yl)-2-(5-bromo-1H-indolyl-3-carboxamido)ethyl)carbamate] | 1 µg/mL (≈ 1.74 µM) | 1 µg/mL (≈ 1.74 µM) | 2 µg/mL (≈ 3.47 µM) | 64 µg/mL (≈ 111 µM) | 2 µg/mL (≈ 3.47 µM) | 2 µg/mL (≈ 3.47 µM) | 97 ± 1% | 0% | 91 ± 10% | 0% | 2×10^−9 |  |  |  |
| CC(NC(=O)c1c[nH]c2ccc(Br)cc12)c1c[nH]c2ccc(Br)cc12 (stereo not shown) [Compound 4, 5-Bromo-N-(1-(5-bromo-1H-indol-3-yl)ethyl)-1H-indole-3-carboxamide] | 2 µg/mL (≈ 4.34 µM) | 4 µg/mL (≈ 8.67 µM) | 2 µg/mL (≈ 4.34 µM) |  | 2 µg/mL (≈ 4.34 µM) | 1 µg/mL (≈ 2.17 µM) | 13 ± 3% | 0% | 36 ± 4% | 7% | < 1.5×10^−10 |  |  |  |
| Cn1cc(C(=O)NC(CNC(=O)OC(C)(C)C)c2c[nH]c3ccc(Br)cc23)c2cc(Br)ccc21 (stereo not shown) [Compound 7, tert-Butyl (2-(5-bromo-1-methyl-1H-indole-3-carboxamido)-2-(5-bromo-1H-indol-3-yl)ethyl) carbamate] | > 128 µg/mL | > 128 µg/mL | > 128 µg/mL | > 128 µg/mL |  |  | 52 ± 2% | 2% | 23 ± 6% | 12% |  | 4 (1) mg/L | 1 (2) mg/L | 0.25 (4) mg/L |
| NCCCCNC(=O)C(NC(=O)c1c[nH]c2ccc(Br)cc12)c1c[nH]c2ccc(Br)cc12 (stereo not shown) [Compound 16, N-(2-((4-Aminobutyl)amino)-1-(5-bromo-1H-indol-3-yl)-2-oxoethyl)-5-bromo-1H-indole-3-carboxamide] | 8 µg/mL (≈ 14.3 µM) | 8 µg/mL (≈ 14.3 µM) | 8 µg/mL (≈ 14.3 µM) | > 128 µg/mL |  |  |  |  |  |  |  |  |  | 1 (4) mg/L |
